Measured values: ChEMBL document CHEMBL1142161, “Hepatitis C virus (HCV) NS5B nonnucleoside inhibitors specifically block single-stranded viral RNA synthesis catalyzed by HCV replication complexes in vitro” (Antimicrob Agents Chemother, 2007)
Calls of active or inactive are those of the source. The calls are words filed in the database; no cut-off is given here.

How the values were obtained:
[1] = Inhibition of replication in M414T cells containing mutant HCV replicons after 72 hrs; type: functional, cell-based, Homo sapiens
Hepacivirus hominis = experiment: Inhibition of HCV ssRNA synthesis by crude replicase complexes prepared from Huh-9-13 cells; type: functional
[2] = (§1) Inhibition of replication in Huh-9-13 cells containing Wild type HCV replicons after 72 hrs; type: functional, cell-based; conditions: Homo sapiens
Homo sapiens = organism: Homo sapiens; experiment: as §1; type: functional, cell-based

Row | SMILES | EC50 [1] | Activity (Hepacivirus hominis) | EC50 [2] | Activity (Homo sapiens)
1 | CC(C)CCn1c(=O)c(C2=NS(=O)(=O)c3ccccc3N2)c(O)c2ccccc21 | > 31600 nM | Dose-dependent effect | 900 nM | –
2 | O=C(N[C@@H](Cc1c[nH]c2ccccc12)C(=O)O)c1ccc2c(c1)nc(-c1ccoc1)n2C1CCCCC1 | – | Dose-dependent effect | – | inactive
